Active and inactive are the calls of the source.
Tests used:
[1] = target: NAD-dependent protein deacylase sirtuin-5, mitochondrial (Homo sapiens, UniProt Q9NXA8); assay: sirtuin-5 deacylation blockers, concentration series – biochemical, fluorescence imaging, cherry-pick, set 5, dose response (AID 720591);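 note: desuccinylation of succinyl peptide AMC substrate read as fluorescence after trypsin release; potency of inhibitors that lower fluorescence and may act on trypsin instead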
[2] = Luminescence Cell-Based Dose Retest to Confirm Inhibitors of Cancer Stem Cells. [Related pubchem assays (depositor defined):AID2717, AID2721]; type: functional; conditions: Homo sapiens
[3] = target: T1, Ubiquitin-conjugating enzyme E2 N (Homo sapiens, UniProt P61088); type: functional;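 note: Dose-response confirmation in a TR-FRET assay detecting UBC13-driven polyubiquitin chain formation, inhibition measured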
T1 sequence (P61088 whole entry): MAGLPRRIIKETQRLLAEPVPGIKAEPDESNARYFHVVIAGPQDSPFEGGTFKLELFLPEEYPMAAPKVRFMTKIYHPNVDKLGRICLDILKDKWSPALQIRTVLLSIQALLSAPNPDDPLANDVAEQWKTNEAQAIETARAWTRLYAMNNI

[4] = target: T2, Microphthalmia-associated transcription factor (Homo sapiens, UniProt O75030); assay: reducers of TRPM1 reporter luminescence, concentration series – cell-based, SK-MEL-5, cherry-picked, set 3, MITF inhibitor project, dose response (AID 493073); type: functional;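 note: SK-MEL-5 melanoma cells with luciferase driven by the MITF target TRPM1 promoter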
T2 sequence (O75030 whole entry): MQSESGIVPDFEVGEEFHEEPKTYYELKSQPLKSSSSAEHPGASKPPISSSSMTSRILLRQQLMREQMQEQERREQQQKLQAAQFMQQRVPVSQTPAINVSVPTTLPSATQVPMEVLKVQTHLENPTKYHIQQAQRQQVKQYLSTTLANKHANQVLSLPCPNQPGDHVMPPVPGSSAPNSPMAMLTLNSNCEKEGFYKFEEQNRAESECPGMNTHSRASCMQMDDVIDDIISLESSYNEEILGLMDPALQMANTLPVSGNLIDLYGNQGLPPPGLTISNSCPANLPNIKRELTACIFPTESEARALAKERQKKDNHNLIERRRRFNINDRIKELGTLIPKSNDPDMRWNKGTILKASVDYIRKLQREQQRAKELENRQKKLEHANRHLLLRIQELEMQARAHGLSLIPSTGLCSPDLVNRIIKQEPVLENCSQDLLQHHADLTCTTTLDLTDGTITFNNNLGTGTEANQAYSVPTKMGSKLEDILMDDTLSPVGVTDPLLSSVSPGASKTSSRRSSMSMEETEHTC

INS1 = assay: INS-1E survival protection against cytokine death – cell-based, luminescence, retest, dose response (AID 449756); type: functional; conditions: Rattus norvegicus;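 note: cell death triggered by IL-1 beta plus TNF-alpha plus IFN-gamma mixture; protective hits raise ATP signal compared with cytokine alone wells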
A-375 = assay: proliferation inhibition in MITF-low A375 cells – cell-based, cherry-pick samples, set 2, counter-screen for MITF modulator project, dose response (AID 540335); type: functional; conditions: Homo sapiens
cells = type: functional, cell-based
[5] = target: T3, Nuclear receptor subfamily 0 group B member 1 (Homo sapiens, UniProt P51843); type: functional, cell-based;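 note: HEK293T cells transfected with SF-1 and DAX-1 plus StAR promoter luciferase reporter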
T3 sequence (P51843 whole entry): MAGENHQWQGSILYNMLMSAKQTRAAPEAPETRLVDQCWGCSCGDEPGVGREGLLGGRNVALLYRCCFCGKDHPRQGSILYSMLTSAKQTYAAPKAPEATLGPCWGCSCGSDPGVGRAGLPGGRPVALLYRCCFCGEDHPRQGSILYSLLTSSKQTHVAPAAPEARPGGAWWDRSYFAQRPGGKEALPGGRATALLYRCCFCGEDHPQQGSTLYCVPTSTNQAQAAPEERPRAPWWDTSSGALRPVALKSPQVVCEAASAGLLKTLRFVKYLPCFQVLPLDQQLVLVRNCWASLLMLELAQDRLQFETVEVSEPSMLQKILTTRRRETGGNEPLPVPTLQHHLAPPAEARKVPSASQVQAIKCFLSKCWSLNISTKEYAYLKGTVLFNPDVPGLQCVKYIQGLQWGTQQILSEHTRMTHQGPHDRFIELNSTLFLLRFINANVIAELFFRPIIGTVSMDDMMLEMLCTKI

[6] = target: FAD-linked sulfhydryl oxidase ALR (Homo sapiens, UniProt P55789); assay: ALR-catalysed DTT oxidation blockers – biochemical, H2O2 detection, luminescence, cherry-pick, dose response (AID 493248)
Sequence of FAD-linked sulfhydryl oxidase ALR (P55789 whole entry): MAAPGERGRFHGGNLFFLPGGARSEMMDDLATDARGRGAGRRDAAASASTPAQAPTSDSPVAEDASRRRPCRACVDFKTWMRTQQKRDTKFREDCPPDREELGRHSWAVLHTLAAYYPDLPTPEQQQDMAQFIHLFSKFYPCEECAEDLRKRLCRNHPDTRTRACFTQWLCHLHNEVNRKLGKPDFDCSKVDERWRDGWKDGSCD

[7] = target: T4, Trace amine-associated receptor 1 (Homo sapiens, UniProt Q96RJ0); assay: Fluorescence-based cell-based high throughput dose response assay to identify agonists of the human trace amine associated receptor 1 (TAAR1).; type: functional
T4 sequence (Q96RJ0 whole entry): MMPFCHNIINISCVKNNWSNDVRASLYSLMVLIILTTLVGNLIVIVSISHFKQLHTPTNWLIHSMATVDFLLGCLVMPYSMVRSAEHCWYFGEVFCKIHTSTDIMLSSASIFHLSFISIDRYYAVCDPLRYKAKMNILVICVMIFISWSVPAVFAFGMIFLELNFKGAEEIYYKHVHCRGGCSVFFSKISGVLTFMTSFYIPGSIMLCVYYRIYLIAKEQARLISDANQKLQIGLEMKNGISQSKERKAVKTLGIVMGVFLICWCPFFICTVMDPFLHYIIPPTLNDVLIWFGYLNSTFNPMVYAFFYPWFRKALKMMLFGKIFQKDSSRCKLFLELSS

[8] = target: T4, Trace amine-associated receptor 1; assay: Counterscreen for agonists of the human trace amine associated receptor 1 (hTAAR1): Fluorescence-based cell-based high throughput dose response assay to identify hTAAR1 agonist that also desensitize TAAR1 receptor response.; type: functional
Leucine aminopeptidase = target: T5, Leucine aminopeptidase (Plasmodium falciparum 3D7, UniProt Q8IL11); assay: P. falciparum M17LAP inhibitors, primary screen, biochemical, fluorogenic H-Leu-NHMec substrate, 1536-well (AID 1619); type: functional
T5 sequence (Q8IL11 whole entry): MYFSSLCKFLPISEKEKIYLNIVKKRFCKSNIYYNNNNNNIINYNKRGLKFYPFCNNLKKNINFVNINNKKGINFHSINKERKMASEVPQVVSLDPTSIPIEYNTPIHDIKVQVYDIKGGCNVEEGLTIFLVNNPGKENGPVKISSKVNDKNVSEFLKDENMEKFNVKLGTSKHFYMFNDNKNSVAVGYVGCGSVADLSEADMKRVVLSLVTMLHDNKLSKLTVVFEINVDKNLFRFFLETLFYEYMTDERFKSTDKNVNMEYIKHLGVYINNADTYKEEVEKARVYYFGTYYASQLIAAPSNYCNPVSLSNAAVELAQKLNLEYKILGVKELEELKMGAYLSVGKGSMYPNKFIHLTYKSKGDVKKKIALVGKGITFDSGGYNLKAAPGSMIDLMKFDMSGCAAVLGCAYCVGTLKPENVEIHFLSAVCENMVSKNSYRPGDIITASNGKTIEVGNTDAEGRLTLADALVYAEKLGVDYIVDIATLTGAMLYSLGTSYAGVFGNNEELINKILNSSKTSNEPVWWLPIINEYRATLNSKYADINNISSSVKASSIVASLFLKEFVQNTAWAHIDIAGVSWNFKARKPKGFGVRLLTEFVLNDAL

[9] = target: T6, DNA repair protein RAD52 homolog (Homo sapiens, UniProt P43351); type: functional, biochemical
T6 sequence (P43351 whole entry): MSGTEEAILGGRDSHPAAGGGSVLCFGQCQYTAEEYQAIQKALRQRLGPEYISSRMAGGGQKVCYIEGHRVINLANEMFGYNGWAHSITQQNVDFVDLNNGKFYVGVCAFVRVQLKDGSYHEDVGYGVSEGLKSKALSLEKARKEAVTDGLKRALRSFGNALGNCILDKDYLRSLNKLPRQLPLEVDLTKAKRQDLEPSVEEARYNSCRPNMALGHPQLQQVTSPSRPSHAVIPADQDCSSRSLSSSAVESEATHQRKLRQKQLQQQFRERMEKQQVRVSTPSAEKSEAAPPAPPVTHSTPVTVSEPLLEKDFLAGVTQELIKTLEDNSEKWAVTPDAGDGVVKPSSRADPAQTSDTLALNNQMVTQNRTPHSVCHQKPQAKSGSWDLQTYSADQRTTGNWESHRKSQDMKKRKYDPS

[10] = target: T7, Calpain-2 catalytic subunit (Sus scrofa, UniProt P43367); assay: m-calpain protease blockers, concentration series – biochemical, fluorogenic peptide substrate, dose response (AID 1420); type: functional
T7 sequence (P43367 whole entry): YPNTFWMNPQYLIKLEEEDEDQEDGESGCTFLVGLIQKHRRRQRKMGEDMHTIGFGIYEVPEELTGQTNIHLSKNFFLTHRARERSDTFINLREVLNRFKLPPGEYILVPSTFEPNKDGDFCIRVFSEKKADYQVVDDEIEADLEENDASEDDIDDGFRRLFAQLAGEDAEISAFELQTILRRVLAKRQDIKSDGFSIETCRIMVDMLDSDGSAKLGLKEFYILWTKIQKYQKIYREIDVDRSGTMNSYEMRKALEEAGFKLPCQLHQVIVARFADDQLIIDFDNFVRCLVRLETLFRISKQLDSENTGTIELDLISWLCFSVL

[11] = viability loss in THP-1 monocytes – THP-1 cells, cytotoxicity control for Vif-APOBEC3G degradation inhibitor project, dose response (AID 1117359); type: functional; conditions: THP-1
[12] = M. tuberculosis H37Rv growth inhibitors, H37Rv strain (AID 1626); type: functional

Sequence of NAD-dependent protein deacylase sirtuin-5, mitochondrial (Q9NXA8 whole entry): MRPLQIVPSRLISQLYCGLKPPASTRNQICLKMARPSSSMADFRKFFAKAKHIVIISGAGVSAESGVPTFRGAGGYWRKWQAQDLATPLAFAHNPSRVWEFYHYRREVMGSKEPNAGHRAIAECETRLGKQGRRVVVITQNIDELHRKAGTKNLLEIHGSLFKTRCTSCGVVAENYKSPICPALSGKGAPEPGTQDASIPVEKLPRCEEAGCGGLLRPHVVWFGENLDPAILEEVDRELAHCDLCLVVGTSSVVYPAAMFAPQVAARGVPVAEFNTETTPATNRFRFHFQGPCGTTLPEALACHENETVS

CN(C)C(CNC(=O)CCNC(=O)c1ccc(Cl)cc1)c1ccco1 (stereo not given)
AC50 [1]: > 30 µM (inactive)

CCN1CCN(CCCNC(=O)c2ccc3c(c2)NC(=O)/C(=C\c2cccc(C)c2)S3)CC1
AC50 [2]: 4.17 µM (active) | IC50 [3]: > 20 µM (inactive) | AC50 [4]: 9.93 µM (active) | AC50 (INS1): 6.5 µM (active) | AC50 (A-375): 17.5 µM (active)

CN1CCN(c2ccc(-c3cccc(NC(=O)COc4ccc(Cl)cc4)c3)nn2)CC1
IC50 (cells): > 67.5 µM (inactive) | IC50 [5]: > 67.5 µM (inactive)

COC(=O)[C@H](Cc1c[nH]c2ccccc12)NC(=O)NCc1ccc(OC)c(OC)c1
AC50 [1]: > 30 µM (inactive)

Cn1c(=O)c2[nH]c(Nc3ccccc3)nc2n(C)c1=O
AC50 [6]: 0.398 µM (active) | EC50 [7]: 5.67 µM (active) | IC50 [8]: 9.39 µM (active)

CC1CCN(CC(=O)Nc2ccc(N3CCCCCC3)cc2)CC1
IC50 (Leucine aminopeptidase): 13 µM (active) | AC50 [6]: 0.448 µM (active) | AC50 [9]: 18 µM (active)

CCOc1cc(CNc2ccc(O)cc2)cc(Br)c1OCc1ccccc1F
IC50 [10]: 9.81 µM (not active) | CC50 [11]: 27.8 µM (active)

Cc1ccnc(NC(=O)c2cccc(S(=O)(=O)N3CCOCC3)c2)c1
IC50 (cells): > 67.5 µM (inactive) | IC50 [5]: > 67.5 µM (inactive)

O=C(COC(=O)c1ccccc1Br)Nc1ccccc1F
IC50 [12]: > 100 µM (active)

From ChEMBL document CHEMBL1201862, “PubChem BioAssay data set” (2004)
